According to ChEMBL document CHEMBL3045012, “Quinoline-based azetidinone and thiazolidinone analogues as antimicrobial and antituberculosis agents” (2013):
≈ marks a conversion by molar mass, not a printed value.

Columns and labels:
Format in all cases: functional
Bacillus subtilis [1] = experiment: Antimicrobial activity against Bacillus subtilis MTCC 430 assessed as growth inhibition after 24 hr by agar streak dilution technique; conditions: MTCC 430, 24 h
Aspergillus niger [2] = experiment: Antimicrobial activity against Aspergillus niger MTCC 282 assessed as growth inhibition after 48 hr by agar streak dilution technique; conditions: MTCC 282, 48 h
Staphylococcus aureus [3] = experiment: Antimicrobial activity against Staphylococcus aureus MTCC 96 assessed as diameter of growth inhibition zone after 24 hr by paper disk diffusion technique
Bacillus subtilis [4] = experiment: Antimicrobial activity against Bacillus subtilis MTCC 430 assessed as diameter of growth inhibition zone after 24 hr by paper disk diffusion technique
Candida albicans [5] = experiment: Antimicrobial activity against Candida albicans MTCC 183 assessed as growth inhibition after 48 hr by agar streak dilution technique; conditions: MTCC 183, 48 h
Escherichia coli [6] = experiment: Antimicrobial activity against Escherichia coli MTCC 739 assessed as diameter of growth inhibition zone after 24 hr by paper disk diffusion technique
Staphylococcus aureus [7] = experiment: Antimicrobial activity against Staphylococcus aureus MTCC 96 assessed as growth inhibition after 24 hr by agar streak dilution technique; conditions: MTCC 96, 24 h
Aspergillus niger [8] = experiment: Antimicrobial activity against Aspergillus niger MTCC 282 assessed as diameter of growth inhibition zone after 24 hr by paper disk diffusion technique
Candida albicans [9] = experiment: Antimicrobial activity against Candida albicans MTCC 183 assessed as diameter of growth inhibition zone after 24 hr by paper disk diffusion technique
Pseudomonas aeruginosa [10] = experiment: Antimicrobial activity against Pseudomonas aeruginosa MTCC 741 assessed as growth inhibition after 24 hr by agar streak dilution technique; conditions: MTCC 741, 24 h
[11] = system: Mycobacterium tuberculosis; experiment: Antituberculosis activity against Mycobacterium tuberculosis H37Rv assessed as growth inhibition after 12 to 28 days by L-J MIC method; conditions: for MIC: Mycobacterium tuberculosis, H37Rv
Pseudomonas aeruginosa [12] = experiment: Antimicrobial activity against Pseudomonas aeruginosa MTCC 741 assessed as diameter of growth inhibition zone after 24 hr by paper disk diffusion technique
Escherichia coli [13] = experiment: Antimicrobial activity against Escherichia coli MTCC 739 assessed as growth inhibition after 24 hr by agar streak dilution technique; conditions: MTCC 739, 24 h

SMILES	MIC (Bacillus subtilis [1]) [µg/mL]	MIC (Aspergillus niger [2]) [µg/mL]	diameter of the inhibition zone (DIZ) (Staphylococcus aureus [3]) [mm]	diameter of the inhibition zone (DIZ) (Bacillus subtilis [4]) [mm]	MIC (Candida albicans [5]) [µg/mL]	diameter of the inhibition zone (DIZ) (Escherichia coli [6]) [mm]	MIC (Staphylococcus aureus [7]) [µg/mL]	diameter of the inhibition zone (DIZ) (Aspergillus niger [8]) [mm]	diameter of the inhibition zone (DIZ) (Candida albicans [9]) [mm]	MIC (Pseudomonas aeruginosa [10]) [µg/mL]	growth inhibition (GI) [11] [%]	MIC [11] [µg/mL]	diameter of the inhibition zone (DIZ) (Pseudomonas aeruginosa [12]) [mm]	MIC (Escherichia coli [13]) [µg/mL]
Cc1ccccc1N1C(=O)C(Cl)C1c1cc2ccccc2nc1Cl (stereo unspecified)	100 (≈ 280 µM)	100 (≈ 280 µM)	16	<10	100 (≈ 280 µM)	<10	100 (≈ 280 µM)	<10	<10	100 (≈ 280 µM)	91	1000 (≈ 2800 µM)	<10	100 (≈ 280 µM)
O=C1CSC(c2cc3ccccc3nc2Cl)N1c1ccccc1Cl (stereo unspecified)	12.5 (≈ 33.3 µM)	62.5 (≈ 167 µM)	21	23	62.5 (≈ 167 µM)	21	50 (≈ 133 µM)	20	21	25 (≈ 66.6 µM)	95	100 (≈ 266 µM)	21	62.5 (≈ 167 µM)
O=C1C(Cl)C(c2cc3ccccc3nc2Cl)N1c1cccc(Cl)c1 (stereo unspecified)	12.5 (≈ 33.1 µM)	62.5 (≈ 165 µM)	25	23	62.5 (≈ 165 µM)	21	25 (≈ 66.2 µM)	25	20	25 (≈ 66.2 µM)	98	50 (≈ 132 µM)	22	62.5 (≈ 165 µM)
Cc1cccc(N2C(=O)C(Cl)C2c2cc3ccccc3nc2Cl)c1 (stereo unspecified)	100 (≈ 280 µM)	100 (≈ 280 µM)	<10	18	100 (≈ 280 µM)	14	100 (≈ 280 µM)	20	<10	100 (≈ 280 µM)	90	500 (≈ 1400 µM)	16	100 (≈ 280 µM)
O=C1CSC(c2cc3ccccc3nc2Cl)N1c1ccc(Cl)cc1 (stereo unspecified)	12.5 (≈ 33.3 µM)	12.5 (≈ 33.3 µM)	23	24	50 (≈ 133 µM)	23	50 (≈ 133 µM)	25	22	25 (≈ 66.6 µM)	96	62.5 (≈ 167 µM)	24	50 (≈ 133 µM)
Cc1cnc(N2C(=O)C(Cl)C2c2cc3ccccc3nc2Cl)s1 (stereo unspecified)	50 (≈ 137 µM)	62.5 (≈ 172 µM)	23	21	100 (≈ 275 µM)	24	50 (≈ 137 µM)	23	23	50 (≈ 137 µM)	99	12.5 (≈ 34.3 µM)	21	25 (≈ 68.6 µM)
O=C1C(Cl)C(c2cc3ccccc3nc2Cl)N1c1ccc(F)cc1 (stereo unspecified)	25 (≈ 69.2 µM)	25 (≈ 69.2 µM)	23	23	50 (≈ 138 µM)	23	25 (≈ 69.2 µM)	26	24	50 (≈ 138 µM)	98	25 (≈ 69.2 µM)	22	25 (≈ 69.2 µM)
O=C1C(Cl)C(c2cc3ccccc3nc2Cl)N1c1ccccc1 (stereo unspecified)	100 (≈ 291 µM)	100 (≈ 291 µM)	<10	<10	100 (≈ 291 µM)	<10	100 (≈ 291 µM)	<10	<10	100 (≈ 291 µM)	90	500 (≈ 1460 µM)	<10	100 (≈ 291 µM)
Cc1cccc(N2C(=O)CSC2c2cc3ccccc3nc2Cl)c1 (stereo unspecified)	100 (≈ 282 µM)	100 (≈ 282 µM)	18	17	100 (≈ 282 µM)	<10	100 (≈ 282 µM)	19	13	100 (≈ 282 µM)	90	500 (≈ 1410 µM)	16	100 (≈ 282 µM)
